In patent publication EP0545103A1, “Insecticidal, acaricidal and molluscicidal 1-(substituted) thioalkylpyrroles” (priority 1991, dated 1993):

How the values were obtained:
Assay type in all cases: in vivo
[1] = system: Heliothis virescens, egg, tobacco budworm; test: Tobacco budworm egg test, dipped cotton leaf and eggs; set-up: key: 0: no effect; 10-25% kill; 26-35% kill; 36-45% kill; 46-55% kill; 56-65% kill; 66-75% kill; 76-85% kill; 86-99% kill; 9: 100% kill; details: mortality rating after 3 days
Experimental: (§1) Test solutions are prepared by dissolving the test compound in a 35% acetone in water mixture to give a concentration of 10,000 ppm. Subsequent dilutions are made with water as needed.
Heliothis virescens, egg, tobacco budworm
A young cotton leaf about 6-7cm in length is dipped in an agitated test suspension for about 3 seconds. Eggs are collected on a cheesecloth and the cloth is cut into 10-20mm squares, each containing approximately 50-100 eggs which are 6-30 hours old. The egg-containing cheesecloth square is similarly dipped in a test suspension and placed on a treated cotton leaf. The combination is dried in a hood and then placed in an 8 ounce Dixie® cup #2168-ST (240ml volume, 6cm tall, 9.5cm top diameter, 8.0cm bottom diameter) into which a 5cm length of damp dental wick has been placed. The cup is covered with a clear plastic lid and held for 3 days, after which mortality counts are made.
(§2) All of the above tests are rated according to the rating scale shown below.

[2] = system: Spodoptera eridania, 3rd instar larvae, southern armyworm; test: Southern armyworm 3rd instar test, dipped limabean leaf; set-up: key: 0: no effect; 10-25% kill; 26-35% kill; 36-45% kill; 46-55% kill; 56-65% kill; 66-75% kill; 76-85% kill; 86-99% kill; 9: 100% kill; details: for ARMYWORM Day 3: rating at 3 days; for ARMYWORM Day 5: rating at 5 days
Experimental: as §1
Spodoptera eridania, 3rd instar larvae, southern armyworm
A Sieva limabean leaf expanded to 7-8 cm in length is dipped in the test solution with agitation for 3 seconds and allowed to dry in a hood. The leaf is then placed in a 100 x 10 mm petri dish containing a damp filterpaper on the bottom and ten 3rd instar caterpillars. At 3 and 5 days, observations are made of mortality, reduced feeding, or any interference with normal molting.
as §2

[3] = system: Spodoptera eridania, 3rd instar larvae, southern armyworm; test: Southern armyworm 7-day residual test; details: R designates Residual: 7-day residual foliage, concentration not given; for ARMYWORM Day 3 R: rating at 3 days; for ARMYWORM Day 5 R: rating at 5 days
Experimental: as §1
Spodoptera eridania, 3rd instar larvae, southern armyworm, 7-day residual
The limabean leaves treated in the above test are maintained under high intensity lamps in the greenhouse for 7 days. These lamps duplicate the effects of a bright sunny day in June in New Jersey and are kept on for 14 hour day length. After 7 days, the foliage is sampled and assayed as in the above-said test.
as §2

[4] = system: Spodoptera eridania, 3rd instar larvae, southern armyworm; test: Southern armyworm systemic uptake (stem systemic) test; set-up: key: 0: no effect; 10-25% kill; 26-35% kill; 36-45% kill; 46-55% kill; 56-65% kill; 66-75% kill; 76-85% kill; 86-99% kill; 9: 100% kill; details: cut stem in emulsion 3 days
Excerpt: Spodoptera eridania, systemic uptake, 3rd instar larvae, southern armyworm
Subsequent 10-fold dilutions are made with water as needed. Sieva limabean plants, with the primary leaves expanded to a length of 7-8 cm, are cut off at least 3 cm above the soil level to avoid contamination with soil bacteria which will cause decay of the stem during the test. The cut stem is placed in the test emulsion and wrapped with a bit of cotton to hold the stem off the bottom of the bottle and to limit evaporation. The treated stem is thus maintained for 3 days at 27° C to allow the test compound to be taken up into the plant. Following this, one leaf is removed from the plant and placed in a 100 x 10 mm petri dish with 10 southern armyworms as described above. Mortality counts and observations of feeding damage are made 3 and 5 days later.
as §2

[5] = system: Diabrotic undecimpunctata howardi, 3rd instar southern corn rootworm; test: Southern corn rootworm soil test; set-up: key: 0: no effect; 10-25% kill; 26-35% kill; 36-45% kill; 46-55% kill; 56-65% kill; 66-75% kill; 76-85% kill; 86-99% kill; 9: 100% kill; details: mortality rating after 6 days
Experimental: Diabrotic undecimpunctata howardi, 3rd instar southern corn rootworm
One cc of fine talc is placed in a 30 mL wide-mouth screw-top glass jar. One mL of the appropriate acetone test solution is pipetted onto the talc so as to provide 1.25 and 0.25 mg of active ingredient per jar. The jars are set under a gentle air flow until the acetone is evaporated. The dried talc is loosened, 1 cc of millet seed is added to serve as food for the insects and 25 mL of moist soil is added to each jar. The jar is capped and the contents thoroughly mixed on a Vortex Mixer. Following this, ten 3rd instar rootworms are added to each jar and the jars are loosely capped to allow air exchange for the larvae. The treatments are held for 6 days when mortality counts are made. Missing larvae are presumed dead, since they decompose rapidly and can not be found. The concentrations used in this test correspond approximately to 50 and 10 kg/ha, respectively.
as §2

[6] = system: Tetranychus urticae (OP-resistant strain), 2-spotted spider mite; test: 2-spotted spider mite test, dipped infested limabean plants; set-up: key: 0: no effect; 10-25% kill; 26-35% kill; 36-45% kill; 46-55% kill; 56-65% kill; 66-75% kill; 76-85% kill; 86-99% kill; 9: 100% kill
Experimental: as §1
Tetranychus urticae (OP-resistant strain), 2-spotted spider mite
Sieva limabean plants with primary leaves expanded to 7-8 cm are selected and cut back to one plant per pot. A small piece is cut from an infested leaf taken from the main colony and placed on each leaf of the test plants. This is done about 2 hours before treatment to allow the mites to move over to the test plant and to lay eggs. The size of the cut, infested leaf is varied to obtain about 100 mites per leaf. At the time of test treatment, the piece of leaf used to transfer the mites is removed and discarded. The newly mite-infested plants are dipped in the test solution for 3 seconds with agitation and set in the hood to dry. After 2 days one leaf is removed and mortality counts are made. After 5 days, another leaf is removed and observations are made of mortality of the eggs and/or newly emerged nymphs.
as §2

[7] = system: Aphis fabae, mixed instar, bean aphid; test: Bean aphid spray test on nasturtium; set-up: key: 0: no effect; 10-25% kill; 26-35% kill; 36-45% kill; 46-55% kill; 56-65% kill; 66-75% kill; 76-85% kill; 86-99% kill; 9: 100% kill; details: 100 ppm
Experimental: as §1
Aphis fabae, mixed instar, bean aphid
Pots containing single nasturtium plants (Tropaeolum sp.) about 5 cm tall are infested with about 100-200 aphids one day prior to treatment. Each pot is sprayed with the test solution for 2 revolutions of a 4 rpm turntable in a hood, using a #154 DeVilbiss atomizer. The spray tip is held about 15 cm from the plant and the spray directed so as to give complete coverage of the plants and the aphids. The sprayed pots are set on their sides on white enamel trays and mortality estimates are made after 2 days.
as §2

[8] = system: Empoasca abrupta, adult, western potato leafhopper; test: Western potato leafhopper systemic uptake test; set-up: key: 0: no effect; 10-25% kill; 26-35% kill; 36-45% kill; 46-55% kill; 56-65% kill; 66-75% kill; 76-85% kill; 86-99% kill; 9: 100% kill; details: 100 ppm; systemic uptake; rating scale 0-9
Experimental: Empoasca abrupta, adult, western potato leafhopper Systemic Uptake
An emulsion containing 0.1 gm of the test material, 0.2 gm of Emulphor EL-620® emulsifier, 10 mL of acetone and 90 mL of water is prepared and diluted 10-fold with water to give a 100 ppm emulsion. Subsequent 10-fold dilutions are made with water as needed. Sieva limabean plants, with the primary leaves expanded to a length of 7-8 cm, are cut off at least 3 cm above the soil level to avoid contamination with soil bacteria which will cause decay of the stem during the test. The cut stem is placed in the test emulsion and wrapped with a bit of cotton to hold the stem off the bottom of the bottle and to limit evaporation. The treated stem is maintained for 3 days at 27°C to allow the test compound to be taken up into the plant. Following this, one leaf is removed from the plant and placed in a 100 x 10 mm petri dish containing a moist filter paper and about 10 adult leafhoppers as described above. Mortality counts are made after 2 days.
as §2

[9] = system: Empoasca abrupta, adult, western potato leafhopper; test: Western potato leafhopper contact test, dipped limabean leaf; set-up: key: 0: no effect; 10-25% kill; 26-35% kill; 36-45% kill; 46-55% kill; 56-65% kill; 66-75% kill; 76-85% kill; 86-99% kill; 9: 100% kill; details: mortality rating after 2 days
Experimental: as §1
Empoasca abrupta, adult, western potato leafhopper
A Sieva limabean leaf about 5 cm long is dipped in the test solution for 3 seconds with agitation and placed in a hood to dry. The treated leaf is placed in a 100 x 10 mm petri dish containing a moist filter paper and about 10 adult leafhoppers are added. After 2 days, mortality counts are made.
as §2

[10] = 300 ppm, adult mites, rating scale 0-9
[11] = 300 ppm, mite eggs, rating scale 0-9
[12] = 300 ppm, mite nymphs, rating scale 0-9

Compound | TOBACCO BUDWORM Egg ([1]; 100 ppm) | TOBACCO BUDWORM Egg ([1]; 1000 ppm) | ARMYWORM Day 3 ([2]; 10 ppm) | ARMYWORM Day 5 ([2]; 10 ppm) | ARMYWORM Day 3 ([2]; 100 ppm) | ARMYWORM Day 5 ([2]; 100 ppm) | ARMYWORM Day 3 ([2]; 1000 ppm) | ARMYWORM Day 5 ([2]; 1000 ppm) | ARMYWORM Day 3 R [3] | ARMYWORM Day 5 R [3] | ARMYWORM Stem Sys [4] | SOUTHERN CORN ROOTWORM ([5]; 50 (ppm as headed)) | OP-RESISTANT MITES Adult [6, 10] | OP-RESISTANT MITES Egg [6, 11] | OP-RESISTANT MITES Nymph [6, 12] | APHIDS ([7]; rating scale 0-9) | LEAFHOPPER Systemic [8] | also measured
N#Cc1c(Br)c(C(F)(F)F)n(CSc2ncc[nH]2)c1-c1ccc(Cl)cc1 [Example 1] | 0 | 0 | 9 (100% kill) | 9 (100% kill) | 9 (100% kill) | 9 (100% kill) | 9 (100% kill) | 9 (100% kill) | 9 (100% kill) | 9 (100% kill) | 0 | 0 | 0 | 0 | 0 | 0 | 0 | 
N#Cc1c(Br)c(C(F)(F)F)n(CSC2=NCCCCN2)c1-c1ccc(Cl)cc1 [Example 11] | 3 (36-45% kill) | 5 (56-65% kill) | 9 (100% kill) | 9 (100% kill) | 9 (100% kill) | 9 (100% kill) | 9 (100% kill) | 9 (100% kill) | 9 (100% kill) | 9 (100% kill) | 9 (100% kill) | 0 | 0 | 0 | 0 | 0 | 9 (100% kill) | 
CCN=C(NCC)SCn1c(-c2ccc(Cl)cc2)c(C#N)c(Br)c1C(F)(F)F [Example 12] |  | 0 | 9 (100% kill) | 9 (100% kill) | 9 (100% kill) | 9 (100% kill) | 9 (100% kill) | 9 (100% kill) | 9 (100% kill) | 9 (100% kill) | 0 |  | 0 | 0 | 0 | 0 |  | SOUTHERN CORN ROOTWORM ([5]; 1 (ppm as headed)): 0
N#Cc1c(Br)c(C(F)(F)F)n(CSC2=NCCCN2)c1-c1ccc(Cl)cc1 [Example 8] | 0 | 0 | 0 |  | 9 (100% kill) |  | 9 (100% kill) |  | 9 (100% kill) | 9 (100% kill) | 9 (100% kill) | 0 |  |  |  |  |  | OP-RESISTANT MITES Adult ([6]; 10 ppm, mortality rating after 2 days): 0; OP-RESISTANT MITES Nymph ([6]; 10 ppm, rating after 5 days): 0; OP-RESISTANT MITES Adult ([6]; 100 ppm, mortality rating after 2 days): 9 (100% kill); OP-RESISTANT MITES Nymph ([6]; 100 ppm, rating after 5 days): 8 (86-99% kill); OP-RESISTANT MITES Adult ([6]; 300 ppm, mortality rating after 2 days): 9 (100% kill); OP-RESISTANT MITES Egg ([6]; 300 ppm, rating after 5 days): 0; OP-RESISTANT MITES Nymph ([6]; 300 ppm, rating after 5 days): 0; APHIDS ([7]; spray, mortality rating after 2 days): 0; LEAFHOPPER Contact ([9]; 10 ppm): 0; LEAFHOPPER Contact ([9]; 100 ppm): 8 (86-99% kill)
